Data published in paper PMC4910235, “Selenophene and thiophene-core estrogen receptor ligands that inhibit motility and development of parasitic stages of Haemonchus contortus” (Parasites & Vectors, 2016).

tested on: exsheathed third-stage larvae (xL3s) of H. contortus; assay: xL3 motility assay (whole-organism screen and dose-response); assay type: cell-based, Haemonchus contortus; settings: 20 μM
Protocol: The selenophene and thiophene-core ligands (n = 74) (Additional file 1) were screened at a concentration of 20 μM on exsheathed third-stage larvae (xL3s) of H. contortus in 96-well microculture plates (cat. no. 3635; Corning 3650, Life Sciences, Corning, USA) using relevant control compounds (i.e. moxidectin and monepantel), as described previously. In brief, compounds were dissolved to a stock concentration of 10 mM in either dimethyl sulfoxide (DMSO) or methanol (Sigma-Adrich Scientific, St. Louis, USA). These ligands were then individually diluted to the final concentration of 20 μM using Luria Bertani medium (LB) supplemented with 100 IU/ml of penicillin, 100 μg/ml of streptomycin and 2.5 μg/ml of amphotericin (LB*). Compounds were dispensed (in triplicate) into the wells of a 96-well microculture plate using a multichannel pipette. In addition, the negative controls (LB*, LB* + 0.5 % solvent; six wells each), and positive controls (20 μM of monepantel; Zolvix, Novartis Animal Health, Basel, Switzerland and 20 μM of moxidectin; Cydectin, Virbac, Carros, France; triplicate wells) and xL3s (~300/well) were dispensed into wells of the plate using an automated multichannel pipette (Viaflo Assist/II, Integra Biosciences, Zizers, Switzerland). […], a video recording (5 s) was taken of each well of the 96-well microculture plate (containing xL3s) using a greyscale camera (Rolera Bolt CMOS, Qimaging Scientific, Surrey, Canada) and a motorised X-Y axis stage (BioPoint 2, Ludl Electronics Products, Hawthorne, USA). Individual videos were processed to calculate a motility index (MI) using an algorithm described previously. MIs were normalised to the negative and positive controls (to remove plate-to-plate variation) using the program Prism (v.6 GraphPad Software, USA). Z’-scores were calculated to validate the performance of the screening assay; reliable assays achieve Z’-scores of between 0.5 and 1 [28]. A compound was recorded as having an activity if it reduced xL3 motility by ≥ 70 % following incubation for 72 h. […] Compounds that reduced the motility of xL3s were also tested for their ability to inhibit the motility of L4s (same protocol as for xL3s) and/or to affect the development of xL3s to L4s. Following the measurement of L4 motility, larvae were re-incubated for 4 more days and fixed with 1 % iodine (50 μl). Then, L4 development was assessed based on the presence of a well-developed mouth/pharynx using a light microscope and expressed as a percentage of the total number of larvae examined (n = 30).
All assays (to assess xL3 motility, L4 development and L4 motility) were performed in triplicate, three times, on separate days.

| SMILES | activity on xL3 motility, in words |
| --- | --- |
| Cc1cc(-c2cscc2-c2ccc(O)c(C)c2)ccc1O [MJ-33] | poor activity |
| Oc1ccc(-c2cc(Br)c(-c3ccc(O)c(Cl)c3)[se]2)cc1Cl [WZY-4] | “lost” activity |
| COc1ccc(-c2ccc(-c3ccc(OC)cc3Cl)[se]2)c(Cl)c1 [WZY-1] | limited reduction in motility |
| COc1c(C)cc(-c2cc(Br)c(-c3cc(C)c(OC)c(C)c3)[se]2)cc1C [WZY-5] | “lost” activity |
| Oc1ccc(-c2ccsc2-c2ccc(O)cc2Cl)c(Cl)c1 [MJ-32] | lost all activity |
| COc1ccc(-c2cscc2-c2ccc(OC)cc2Cl)c(Cl)c1 [MJ-4] | Poor activity |
| Oc1ccc(-c2cscc2-c2ccc(O)cc2)cc1 [MJ-35] | complete loss of activity |

same assay, conditions: Haemonchus contortus, 72 h, 20 μM, 72 h; percent of motility compared with controls; mean of triplicate ± SEM; read-out: xL3 Motility Index(%)

| SMILES | activity at 20 µM [%] |
| --- | --- |
| Cc1cc(-c2cscc2-c2ccc(O)c(C)c2)ccc1O [MJ-33] | 85.5 ± 10.6 |
| Oc1ccc(-c2ccc(-c3ccc(O)cc3Cl)s2)c(Cl)c1 [MJ-29] | 66.6 ± 2.7 |
| Oc1ccc(-c2ccsc2-c2ccc(O)cc2Cl)c(Cl)c1 [MJ-32] | 102 ± 3.6 |
| COc1ccc(-c2cscc2-c2ccc(OC)cc2Cl)c(Cl)c1 [MJ-4] | 81.6 ± 15.7 |
| Oc1ccc(-c2cscc2-c2ccc(O)cc2)cc1 [MJ-35] | 102 ± 1.5 |

same assay, conditions: Haemonchus contortus, 72 h, read-out: xL3 Motility Index(%), 20 μM, 72 h; percent of motility compared with controls; mean of triplicate ± SEM

| SMILES | activity at 20 µM [%] |
| --- | --- |
| Oc1ccc(-c2cc(Br)c(-c3ccc(O)c(Cl)c3)[se]2)cc1Cl [WZY-4] | 123 ± 7.8 |
| COc1ccc(-c2ccc(-c3ccc(OC)cc3Cl)[se]2)c(Cl)c1 [WZY-1] | 77.9 ± 6.6 |
| Oc1ccc(-c2ccc(-c3ccc(O)cc3F)[se]2)c(F)c1 [WZY-3] | 100 ± 7.7 |
| COc1c(C)cc(-c2cc(Br)c(-c3cc(C)c(OC)c(C)c3)[se]2)cc1C [WZY-5] | 105 ± 18.6 |

tested on: not given; assay: not given; settings: not given

| melting point [°C] | SMILES |
| --- | --- |
| 121 to 125 | COc1ccc(-c2cscc2-c2ccc(OC)cc2Cl)c(Cl)c1 [MJ-4] |
